Data: ChEMBL document CHEMBL1141069, “Impact of induced fit on ligand binding to the androgen receptor: a multidimensional QSAR study to predict endocrine-disrupting effects of environmental chemicals” (J Med Chem, 2005)

Biological target: T1, Androgen receptor (Rattus norvegicus, UniProt P15207)
T1 sequence (P15207 whole entry): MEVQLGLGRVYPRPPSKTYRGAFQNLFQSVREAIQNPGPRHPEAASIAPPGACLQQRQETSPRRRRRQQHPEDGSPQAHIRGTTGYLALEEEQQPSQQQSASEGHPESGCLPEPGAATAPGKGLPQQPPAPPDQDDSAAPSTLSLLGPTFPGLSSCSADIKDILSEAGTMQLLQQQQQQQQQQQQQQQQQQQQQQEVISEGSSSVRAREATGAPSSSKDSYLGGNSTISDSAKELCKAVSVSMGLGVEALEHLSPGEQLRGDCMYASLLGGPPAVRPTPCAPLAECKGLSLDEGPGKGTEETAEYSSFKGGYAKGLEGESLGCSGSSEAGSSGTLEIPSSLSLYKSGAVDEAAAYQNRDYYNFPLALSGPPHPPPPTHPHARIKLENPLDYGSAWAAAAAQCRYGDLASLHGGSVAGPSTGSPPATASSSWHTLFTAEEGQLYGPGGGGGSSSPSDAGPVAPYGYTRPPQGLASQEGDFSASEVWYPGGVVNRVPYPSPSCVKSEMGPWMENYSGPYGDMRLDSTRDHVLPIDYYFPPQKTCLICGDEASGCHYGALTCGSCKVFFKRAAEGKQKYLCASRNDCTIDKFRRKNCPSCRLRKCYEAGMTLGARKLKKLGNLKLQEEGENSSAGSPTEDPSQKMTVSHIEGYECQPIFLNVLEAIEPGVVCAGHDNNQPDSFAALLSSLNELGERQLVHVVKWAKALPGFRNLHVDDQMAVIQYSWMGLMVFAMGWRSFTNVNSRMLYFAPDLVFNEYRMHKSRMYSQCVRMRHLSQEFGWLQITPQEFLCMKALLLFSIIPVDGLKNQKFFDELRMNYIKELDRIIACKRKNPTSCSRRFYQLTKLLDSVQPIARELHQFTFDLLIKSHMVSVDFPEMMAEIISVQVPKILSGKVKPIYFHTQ

## C[C@]12CCC(=O)C=C1CC[C@@H]1[C@@H]2[C@@H](O)C[C@@]2(C)[C@H]1CC[C@]2(O)C(=O)CO [HYDROCORTISONE]
  IC50: 182 µM

## CCC(c1ccc(O)cc1)C(CC)c1ccc(OC)cc1 (stereo unspecified)
  IC50: 12.9 µM

## O=C(c1ccccc1)c1ccc(O)cc1
  IC50: 182 µM

## C[C@]12CCCC[C@@H]1CC[C@@H]1[C@@H]2CC[C@]2(C)[C@@H](O)CC[C@@H]12
  IC50: 0.011 µM

## C[C@]12CC[C@H]3[C@@H](CCC4(OC(=O)c5ccccc5)CC(=O)CC[C@]34C)[C@@H]1CC[C@@H]2O (stereo partly specified) [DHT BENZOATE]
  IC50: 0.257 µM

## CCC(c1ccc(O)c(O)c1)C(CC)c1ccc(O)c(O)c1 (stereo unspecified)
  IC50: 37.2 µM

## CCN(CC)CCOc1ccc(/C(=C(\Cl)c2ccccc2)c2ccccc2)cc1 [CLOMIPHENE]
  IC50: 13.5 µM

## C/C(=C(/C)c1ccc(O)cc1)c1ccc(O)cc1 [DIMETHYLSTILBESTROL]
  IC50: 14.1 µM

## O=C1CC(c2ccccc2)Oc2ccccc21 (stereo unspecified) [FLAVANONE]
  IC50: 55 µM

## CCCCCCCOc1ccc(O)cc1
  IC50: 14.8 µM

## Oc1ccc(OCc2ccccc2)cc1 [MONOBENZONE]
  IC50: 234 µM

## COc1cc(C=O)ccc1O [VANILLIN]
  IC50: > 427 µM

## C[C@]12CC[C@@H]3c4ccc(O)c(O)c4CC[C@H]3[C@@H]1CC[C@@H]2O
  IC50: 2.57 µM

## O=C(/C=C/c1ccc(O)cc1)c1ccccc1 [4-HYDROXYCHALCONE]
  IC50: 47.9 µM

## Cl/C=C(\c1ccc(Cl)cc1)c1ccccc1Cl
  IC50: 10.5 µM

## Oc1ccc([C@H]2COc3cc(O)ccc3C2)cc1 [AUS-131]
  IC50: 74.1 µM

## Oc1ccc(-c2cc(Cl)c(Cl)c(Cl)c2Cl)cc1
  IC50: 16.2 µM

## O=C1C[C@@H]2C(=O)CC[C@H]2[C@@H]2CC[C@H]3CCCC[C@@H]3[C@@H]12
  IC50: 0.0891 µM

## O=c1cc(-c2ccccc2)oc2ccccc12 [FLAVONE]
  IC50: 77.6 µM

## COc1ccc(C(=C(Cl)Cl)c2ccc(O)cc2)cc1
  IC50: 20.4 µM

## Oc1c(Cl)cc(-c2cc(Cl)c(O)c(Cl)c2)cc1Cl
  IC50: 38 µM

## CC(C)(c1ccc(O)cc1)c1ccc(O)cc1 [BISPHENOL A]
  IC50: 74.1 µM

## C[C@]12CC[C@@H](O)C[C@@H]1CC[C@@H]1[C@@H]2CC[C@]2(C)C(O)CC[C@@H]12 (stereo partly specified)
  IC50: 2 µM

## O=C(/C=C/c1ccccc1)c1ccccc1 [CHALCONE]
  IC50: 64.6 µM

## C[C@H]1CCCC(=O)CCCCCc2cc(O)cc(O)c2C(=O)O1 (stereo in doubt; form 2) [ZEARALANONE]
  IC50: 10 µM

## C[C@]12CC[C@@H]3c4ccccc4CC[C@H]3[C@@H]1CC[C@@H]2O
  IC50: 0.0891 µM

## c1ccc([C@H]2COC[C@H]2c2ccccc2)cc1
  IC50: 28.8 µM

## Cc1ccc2c(c1)CC[C@@H]1[C@@H]2CC[C@]2(C)[C@@H](O)[C@H](O)C[C@@H]12
  IC50: 53.7 µM

## O=c1cc(-c2ccccc2)oc2cc(O)ccc12 [7-HYDROXYFLAVONE]
  IC50: > 42.7 µM

## O=C(c1ccc(O)cc1)c1ccc(O)cc1
  IC50: 145 µM

## ClC1=C(Cl)C2(Cl)C3C(Cl)C(Cl)CC3C1(Cl)C2(Cl)Cl (stereo unspecified) [CHLORDANE]
  IC50: 10 µM

## O=C(c1ccccc1)c1ccccc1 [BENZOPHENONE]
  IC50: 129 µM

## ClC(Cl)=C(c1ccc(Cl)cc1)c1ccccc1Cl [O,P'-DDE (1,1-(O,P'-DICHLORODIPHENYL)-2,2 DICHLOROETHENE)]
  IC50: 20.4 µM

## O=c1cc(-c2ccccc2)oc2ccc(O)cc12 [6-HYDROXYFLAVONE]
  IC50: 182 µM

## C[C@]12CCC(=O)C=C1CC[C@@H]1[C@@H]2[C@@H](O)C[C@]2(C=O)[C@@H](C(=O)CO)CC[C@@H]12 [ALDOSTERONE]
  IC50: > 42.7 µM

## Clc1ccc(-c2ccc(Cl)cc2Cl)c(Cl)c1
  IC50: 17 µM

## Oc1ccc(/C=C/c2ccccc2)cc1 [(E)-4-STYRYLPHENOL]
  IC50: 41.7 µM

## Clc1ccc(-c2ccccc2Cl)cc1
  IC50: 16.2 µM

## CC/C(=C(\c1ccc(O)cc1)c1ccc(OCCN(C)C)cc1)c1ccccc1
  IC50: 9.33 µM

## COc1cc(C(=C(Cl)Cl)c2ccc(O)cc2)ccc1O [DIHYDROXYMETHOXYCHLOROLEFIN]
  IC50: 6.31 µM

## COc1ccc2c(c1)CCC(c1ccccc1)=C2c1ccc(OCCN2CCCC2)cc1 [NAFOXIDINE]
  IC50: 12.9 µM

## O=S1OCC2C(CO1)C1(Cl)C(Cl)=C(Cl)C2(Cl)C1(Cl)Cl (stereo unspecified) [ENDOSULFAN]
  IC50: 23.4 µM

## Cc1ccc2c(c1)CC[C@@H]1[C@@H]2CC[C@]2(C)[C@@H](O)[C@@](C)(O)C[C@@H]12
  IC50: 37.2 µM

## O=c1c(-c2ccc(O)cc2)coc2cc(O)cc(O)c12 [GENISTEIN]
  IC50: 85.1 µM

## O=C1CC(c2ccccc2)Oc2ccc(O)cc21 (stereo unspecified)
  IC50: 18.6 µM

## Oc1ccc(/C=C/c2ccc(O)cc2)cc1 [TRANS-4,4'-DIHYDROXYSTILBENE]
  IC50: 83.2 µM

## C[C@]12C=CC3=C4CCC(=O)C=C4CCC3C1CC[C@@H]2O (stereo partly specified) [TRENBOLONE]
  IC50: 0.00263 µM

## CC1CC2=CC(=O)CC[C@@H]2[C@H]2CC[C@@]3(C)[C@@H](CC[C@]3(C)O)[C@H]12 (single isomer, unassigned) [MIBOLERONE]
  IC50: 0.00166 µM

## C[C@]12CC[C@@H]3c4cc(O)c(O)cc4CC[C@H]3[C@@H]1CC[C@@H]2O
  IC50: 8.51 µM

## CCCCCCCCCc1ccc(OCCOCCO)cc1
  IC50: 18.2 µM

## O=C(O)COc1cc(Cl)c(Cl)cc1Cl [2,4,5-TRICHLOROPHENOXYACETIC ACID]
  IC50: 457 µM

## O=C1CC(c2ccc(O)cc2)Oc2ccccc21 (stereo unspecified) [4'-HYDROXY-FLAVANONE]
  IC50: 57.5 µM

## C[C@@]12CCC[C@H]1[C@@H]1CCc3cc(O)ccc3[C@H]1CC2
  IC50: 41.7 µM

## O=C(/C=C/c1ccccc1)c1ccc(O)cc1 [4'-HYDROXYCHALCONE]
  IC50: 57.5 µM

## C[C@H]1CCCC(=O)CCCCCc2cc(O)cc(O)c2C(=O)O1 (stereo in doubt; form 1) [ZEARALANONE]
  IC50: 42.7 µM

## COc1ccc(C(=C(Cl)Cl)c2ccc(OC)cc2)cc1
  IC50: 49 µM
